Test results reported in patent US4636563A, “Antipsychotic γ-carbolines” (American Home Products Corporation, priority 1985, dated 1987).
pKi: −log10 of the molar value.

Legend:
[1] = tested on: conditioned avoidance responding (lever-response); test: Conditioned avoidance, lever-response (L-R); type: in vivo, male CD rats; details: Rattus norvegicus, po; 95% confidence interval in brackets; read-out: L-R AB50 (50% block in avoidance responding)
Excerpt: (§1) The antipsychotic properties of the compounds of this invention were established by standard pharmacologically accepted procedures involving two conditioned avoidance studies in which trained male CD rats (Charles River), 400-450 gm body weight are exposed to a fifteen second warning tone (conditioned stimulus) continued for an additional fifteen seconds accompanied by electric shock. The rat can avoid the electric shock by depression of a response lever (lever-response) or in a different study by jumping to an exposed shelf (shelf-jump response). In either test situation, a response during the initial warning tone is considered an avoidance response while a response during shock delivery is considered an escape response. The avoidance response is determined and expressed as a percentage of total trials from an appropriate number of trials and a 50% block in avoidance responding (AB50) is obtained from a dose-effect regression line. The shelf-jump response test procedure follows that of Herman et al., Comm. in Psychopharm., 3, pp. 165-171 (1979).
(§2) The following examples illustrate the production of compounds of this invention. After each example the pharmacological evaluation for the compound produced is presented. The conditioned avoidance tests are reported as relative activity for the shelf-jump (S-J) at the intraperitoneal (i.p.) dose administered in mg/kg and the AB50 is presented for the lever-response (L-R) test at the oral (p.o.) dose in mg/kg. The inhibition constant is reported for limbic D-2 binding expressed in nM concentration. Similarly, the inhibition constant for cortical 5-HT2 binding is reported as the inhibition constant in nM concentration.

[2] = target: T1, limbic D-2 (dopamine receptor) (Rattus norvegicus, UniProt P61169); test: Limbic D-2 binding (3H-spiroperidol, homogenized limbic brain tissue); details: 95% confidence interval in brackets, read-out: Limbic D-2 inhibition constant (Ki)
T1 construct: from tissue; host or cells: homogenized limbic brain tissue
Method: Binding in the presence of the test compound is expressed as a percent of specific binding (total binding less binding in the presence of 1 μM (+)butaclamol). An inhibition constant (Ki) is calculated for each test compound to catagorize its limbic D-2 binding potential. The larger the number, the less potential for dopamine receptor binding and attendant side effects from administration of the antipsychotic agent.
as §2

serotonin-2 receptors = target: T2, serotonin-2 receptors (Rattus norvegicus, UniProt P14842); test: Cortical 5-HT2 binding (brain cortical tissue); details: for pKi: 95% confidence interval in brackets, read-out: Cortical 5-HT2 inhibition constant (Ki)
T2 construct: In an analogous test procedure employing brain cortical tissue; from tissue; host or cells: brain cortical tissue
Excerpt: as §2

[3] = tested on: conditioned avoidance responding (shelf-jump); test: Conditioned avoidance, shelf-jump response (S-J); type: in vivo, male CD rats
Excerpt: as §1, §2

T1 sequence (P61169 whole entry): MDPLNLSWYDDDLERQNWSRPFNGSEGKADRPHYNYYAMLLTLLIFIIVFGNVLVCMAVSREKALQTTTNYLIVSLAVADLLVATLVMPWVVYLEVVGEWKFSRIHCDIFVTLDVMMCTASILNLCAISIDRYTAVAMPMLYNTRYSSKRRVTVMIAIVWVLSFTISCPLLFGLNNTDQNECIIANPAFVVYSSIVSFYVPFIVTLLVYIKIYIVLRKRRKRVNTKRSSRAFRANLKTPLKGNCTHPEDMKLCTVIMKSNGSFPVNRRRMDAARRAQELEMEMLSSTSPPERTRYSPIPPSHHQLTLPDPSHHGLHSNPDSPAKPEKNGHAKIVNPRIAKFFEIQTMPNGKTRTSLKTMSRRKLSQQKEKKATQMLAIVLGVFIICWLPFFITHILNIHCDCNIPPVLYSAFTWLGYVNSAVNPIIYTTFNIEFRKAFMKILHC
T2 sequence (P14842 whole entry): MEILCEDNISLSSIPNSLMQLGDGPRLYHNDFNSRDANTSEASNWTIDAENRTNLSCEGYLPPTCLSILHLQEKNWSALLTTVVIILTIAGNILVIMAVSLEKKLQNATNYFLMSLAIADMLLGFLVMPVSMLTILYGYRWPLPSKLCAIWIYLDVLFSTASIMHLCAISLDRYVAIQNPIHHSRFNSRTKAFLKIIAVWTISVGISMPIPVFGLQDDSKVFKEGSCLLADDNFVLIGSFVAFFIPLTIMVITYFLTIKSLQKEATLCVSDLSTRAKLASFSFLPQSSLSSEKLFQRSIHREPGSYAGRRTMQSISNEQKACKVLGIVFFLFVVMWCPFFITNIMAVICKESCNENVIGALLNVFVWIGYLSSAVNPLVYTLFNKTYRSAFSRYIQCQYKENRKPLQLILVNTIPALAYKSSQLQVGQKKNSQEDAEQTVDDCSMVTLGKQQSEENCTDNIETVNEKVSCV

Row | pKi [2] | pKi (serotonin-2 receptors) | SMILES | ED50 [1] [mg/kg] | S-J relative activity ([3]; 20 mg/kg i.p.) | S-J relative activity ([3]; 40 mg/kg i.p.) | Ki at serotonin-2 receptors (serotonin-2 receptors; reference ligands)
1 | 6.84 | 6.32 | Fc1ccc2[nH]c3c(c2c1)CN(CCCCc1ccncc1)CC3 [Example 1, 8-Fluoro-2,3,4,5-tetrahydro-2-[4-(4-pyridinyl)butyl]-1H-pyrido[4,3-b]-indole] | 15.1 | Active | – | –
2 | 7.59 | 6.76 | Fc1ccc2[nH]c3c(c2c1)CN(CCc1ccccn1)CC3 [Example 2, 8-Fluoro-2,3,4,5-tetrahydro-2-[2-(2-pyridinyl)ethyl]-1H-pyrido[4,3-b]indole] | 37.6 | Active | – | –
3 | – | 6.68 | Fc1ccc2[nH]c3c(c2c1)CN(CCc1ccncc1)CC3 [Example 3, 8-Fluoro-2,3,4,5-tetrahydro-2-[2-(4-pyridinyl)ethyl]1H-pyrido[4,3-b]indole] | – | – | – | –
4 | 6.73 | – | Fc1ccc2[nH]c3c(c2c1)CN(CCc1ccc2ccccc2n1)CC3 [Example 4, 8-Fluoro-2,3,4,5-tetrahydro-2-[2-(2-quinolinyl)ethyl]-1H-pyrido[4-3-b]indole] | – | Active | – | –
5 | – | – | c1ccc2nc(CCN3CCc4[nH]c5ccccc5c4C3)ccc2c1 [Example 5, 2,3,4,5-Tetrahydro-2-[2-(2-quinolinyl)ethyl]-1H-pyrido[4,3-b]indole] | – | – | Active | –
6 | – | – | c1ccc2c3c([nH]c2c1)CCN(CCCCc1ccncc1)C3 [Example 6, 2,3,4,5-Tetrahydro-2-[4-(4-pyridinyl)butyl]-1H-pyrido[4,3-b]indole] | > 20 | Active | Active | –
7 | – | 6.60 | c1cncc(CCCN2CCc3[nH]c4ccccc4c3C2)c1 [Example 7, 2,3,4,5-Tetrahydro-2-[3-(3-pyridinyl)propyl]-1H-pyrido[4,3-b]indole] | 33.1 | – | Active | –
8 | – | – | Clc1ccc2[nH]c3c(c2c1)CN(CCc1ccccn1)CC3 [Example 9, 8-Chloro-2,3,4,5-tetrahydro-2-[2-(2-pyridinyl)ethyl]-1H-pyrido[4,3-b]indole] | > 40 | – | Active | –
9 | 7.09 | – | Clc1ccc2[nH]c3c(c2c1)CN(CCc1ccc2ccccc2n1)CC3 [Example 10, 8-Chloro-2,3,4,5-tetrahydro-2-[2-(2-quinolinyl)ethyl]-1H-pyrido-[4,3-b]indole] | > 40 | – | Active | –
10 | 6.40 | 6.87 | Fc1ccc2[nH]c3c(c2c1)CN(CCCc1cccnc1)CC3 [Example 11, 8-Fluoro-2,3,4,5-tetrahydro-2-[3-(3-pyridinyl)propyl]1H-pyrido[4,3-b]indole] | 14.4 | Active | – | –
11 | – | – | NCCc1ccc(O)c(O)c1 [dopamine, reference compound] | – | – | – | inactive

Row | SMILES | pKi [2] | pKi (serotonin-2 receptors) | ED50 [1] [mg/kg] | S-J relative activity ([3]; 20 mg/kg i.p.) | S-J relative activity ([3]; 40 mg/kg i.p.) | Ki at serotonin-2 receptors (serotonin-2 receptors; reference ligands)
12 | Clc1ccc2[nH]c3c(c2c1)CN(CCCCc1ccncc1)CC3 [Example 8, 8-Chloro-2,3,4,5-tetrahydro-2-[4-(4-pyridinyl)butyl]-1H-pyrido[4,3-b]indole] | 6.97 | 7.22 | 36.1 | – | Active | –
13 | Clc1ccc2[nH]c3c(c2c1)CN(CCCc1ccccn1)CC3 [Example 12, 8-Chloro-2,3,4,5-tetrahydro-2-[3-(2-pyridinyl)-propyl]-1H-pyrido[4,3-b]indole] | 6.90 | 7.55 | > 40 | – | Active | –
